Measured values reported in PMC11851430, “Workflow for E3 Ligase Ligand Validation for PROTAC Development” (ACS Chemical Biology, 2025).

Key:
Assay in all cases: DSF assay
Type in all cases: binding
Conditions in all cases: 20 µM compound
DAPK3A = biological target: T1, DAPK3A (Homo sapiens, UniProt O43293)
T1 construct: purchased in-house DSF panel (SGC-style construct names; the trailing A/B is a construct suffix)
Procedure: (§1) Excitation and emission filters […]
(§2) curve. […] Measurements were
(§3) Kinobeads selectivity profiling of PROTACs
(§4) (Multiplexion, Heidelberg, Germany).
(§5) The cell lysate was ultracentrifuged and diluted
(§6) NaF, 1 mM DTT, protease inhibitors and phosphatase inhibitors to a final concentration of 5 mg/ml as determined by Bradford assay. For selectivity profiling of compounds the cell lysate (2.5 mg of total proteins per pulldown) was pre-incubated with increasing compound […]
(§7) µM) for 45 min at 4 °C in an end-over-end shaker. Subsequently, lysates were incubated with Kinobeads epsilon (17 µL settled beads) for 30 min at 4 °C. To assess the degree of protein depletion from the lysates by Kinobeads, the flow-through of the DMSO control was recovered

MARK3A = biological target: T2, MARK3A (Homo sapiens, UniProt P27448)
T2 construct: purchased in-house DSF panel (SGC-style construct names; the trailing A/B is a construct suffix)
T2 sequence (P27448 56-307): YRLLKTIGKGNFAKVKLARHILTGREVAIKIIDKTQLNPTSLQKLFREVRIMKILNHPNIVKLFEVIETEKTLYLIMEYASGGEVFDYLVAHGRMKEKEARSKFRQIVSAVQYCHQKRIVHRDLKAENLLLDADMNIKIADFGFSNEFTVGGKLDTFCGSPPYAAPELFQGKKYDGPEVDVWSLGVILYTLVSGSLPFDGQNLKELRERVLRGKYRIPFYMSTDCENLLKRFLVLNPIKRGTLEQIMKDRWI
Procedure: as §1, §2, §3, §4, §5, §6, §7

MST4A = biological target: T3, MST4A (Homo sapiens, UniProt Q9P289)
T3 construct: purchased in-house DSF panel (SGC-style construct names; the trailing A/B is a construct suffix)
T3 sequence (Q9P289 1-300): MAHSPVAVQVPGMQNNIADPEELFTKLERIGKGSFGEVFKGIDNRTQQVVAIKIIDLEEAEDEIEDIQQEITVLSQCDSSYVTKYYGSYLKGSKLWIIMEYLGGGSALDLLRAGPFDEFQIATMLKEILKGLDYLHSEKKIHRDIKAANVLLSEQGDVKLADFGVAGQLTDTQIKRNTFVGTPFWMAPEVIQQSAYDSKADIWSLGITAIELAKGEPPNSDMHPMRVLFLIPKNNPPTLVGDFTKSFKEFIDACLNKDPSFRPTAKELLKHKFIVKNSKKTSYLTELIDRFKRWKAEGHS
Procedure: as §1, §2, §3, §4, §5, §6, §7

MAPK8B = biological target: T4, MAPK8B (Homo sapiens, UniProt P45983)
T4 construct: purchased in-house DSF panel (SGC-style construct names; the trailing A/B is a construct suffix)
T4 sequence (P45983 1-364): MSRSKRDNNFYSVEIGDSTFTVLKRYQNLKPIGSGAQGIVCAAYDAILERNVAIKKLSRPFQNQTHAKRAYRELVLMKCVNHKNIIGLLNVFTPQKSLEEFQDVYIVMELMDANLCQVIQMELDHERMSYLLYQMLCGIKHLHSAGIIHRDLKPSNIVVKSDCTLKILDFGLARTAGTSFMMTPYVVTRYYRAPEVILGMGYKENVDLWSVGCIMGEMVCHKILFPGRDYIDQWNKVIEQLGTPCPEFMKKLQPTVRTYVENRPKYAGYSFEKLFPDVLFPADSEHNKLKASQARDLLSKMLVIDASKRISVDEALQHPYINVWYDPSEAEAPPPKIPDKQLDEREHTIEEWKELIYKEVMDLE
Procedure: as §1, §2, §3, §4, §5, §6, §7

PKMYT1A = biological target: T5, PKMYT1A (Homo sapiens, UniProt Q99640)
T5 construct: purchased in-house DSF panel (SGC-style construct names; the trailing A/B is a construct suffix)
T5 sequence (Q99640 75-362): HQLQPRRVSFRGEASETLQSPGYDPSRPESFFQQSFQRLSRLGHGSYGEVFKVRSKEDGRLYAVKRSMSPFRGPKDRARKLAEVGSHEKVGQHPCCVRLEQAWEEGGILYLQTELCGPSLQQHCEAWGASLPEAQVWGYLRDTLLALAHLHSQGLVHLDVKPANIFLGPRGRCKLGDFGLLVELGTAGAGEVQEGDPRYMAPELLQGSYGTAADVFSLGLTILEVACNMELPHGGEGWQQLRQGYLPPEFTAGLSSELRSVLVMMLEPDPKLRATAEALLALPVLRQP
Procedure: as §1, §2, §3, §4, §5, §6, §7

SLKA = biological target: T6, SLKA (Homo sapiens, UniProt Q9H2G2)
T6 construct: purchased in-house DSF panel (SGC-style construct names; the trailing A/B is a construct suffix)
Procedure: as §1, §2, §3, §4, §5, §6, §7

NEK2A = biological target: T7, NEK2A (Homo sapiens, UniProt P51955)
T7 construct: purchased in-house DSF panel (SGC-style construct names; the trailing A/B is a construct suffix)
T7 sequence (P51955 1-271): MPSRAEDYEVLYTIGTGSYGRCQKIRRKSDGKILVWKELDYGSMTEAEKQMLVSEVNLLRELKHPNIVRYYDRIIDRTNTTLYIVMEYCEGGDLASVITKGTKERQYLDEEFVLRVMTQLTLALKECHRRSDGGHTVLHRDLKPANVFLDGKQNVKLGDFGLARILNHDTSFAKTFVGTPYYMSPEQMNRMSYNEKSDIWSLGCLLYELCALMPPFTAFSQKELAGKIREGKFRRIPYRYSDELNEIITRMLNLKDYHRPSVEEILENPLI
Procedure: as §1, §2, §3, §4, §5, §6, §7

BRD4 = biological target: T8, BRD4 (Homo sapiens, UniProt O60885)
T8 construct: purchased in-house DSF panel (SGC-style construct names; the trailing A/B is a construct suffix)
Procedure: as §1, §2, §3, §4, §5, §6, §7

MAP2K1A = biological target: T9, MAP2K1A (Homo sapiens, UniProt Q02750)
T9 construct: purchased in-house DSF panel (SGC-style construct names; the trailing A/B is a construct suffix)
T9 sequence (Q02750 62-393): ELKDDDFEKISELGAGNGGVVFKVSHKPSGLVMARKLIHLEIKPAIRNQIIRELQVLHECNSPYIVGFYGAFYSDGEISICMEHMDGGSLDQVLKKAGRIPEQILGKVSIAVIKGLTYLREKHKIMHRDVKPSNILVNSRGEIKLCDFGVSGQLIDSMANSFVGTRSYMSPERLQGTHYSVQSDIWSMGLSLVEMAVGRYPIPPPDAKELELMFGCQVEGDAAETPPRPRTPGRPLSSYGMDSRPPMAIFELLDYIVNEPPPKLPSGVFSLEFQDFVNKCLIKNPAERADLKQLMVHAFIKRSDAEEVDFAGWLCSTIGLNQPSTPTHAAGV
Procedure: as §1, §2, §3, §4, §5, §6, §7

FGFR3A = biological target: T10, FGFR3A (Homo sapiens, UniProt P22607)
T10 construct: purchased in-house DSF panel (SGC-style construct names; the trailing A/B is a construct suffix)
T10 sequence (P22607 455-768): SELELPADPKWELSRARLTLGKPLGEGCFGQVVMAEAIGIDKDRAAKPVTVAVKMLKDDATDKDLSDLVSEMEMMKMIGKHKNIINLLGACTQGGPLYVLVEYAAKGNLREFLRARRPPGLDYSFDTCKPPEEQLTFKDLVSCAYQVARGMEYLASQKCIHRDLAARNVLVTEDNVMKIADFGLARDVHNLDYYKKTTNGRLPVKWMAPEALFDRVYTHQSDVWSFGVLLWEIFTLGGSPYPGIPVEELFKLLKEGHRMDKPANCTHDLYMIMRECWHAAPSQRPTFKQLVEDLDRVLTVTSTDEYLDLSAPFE
Procedure: as §1, §2, §3, §4, §5, §6, §7

BMPR2A = biological target: T11, BMPR2A (Homo sapiens, UniProt Q13873)
T11 construct: purchased in-house DSF panel (SGC-style construct names; the trailing A/B is a construct suffix)
T11 sequence (Q13873 27-1038): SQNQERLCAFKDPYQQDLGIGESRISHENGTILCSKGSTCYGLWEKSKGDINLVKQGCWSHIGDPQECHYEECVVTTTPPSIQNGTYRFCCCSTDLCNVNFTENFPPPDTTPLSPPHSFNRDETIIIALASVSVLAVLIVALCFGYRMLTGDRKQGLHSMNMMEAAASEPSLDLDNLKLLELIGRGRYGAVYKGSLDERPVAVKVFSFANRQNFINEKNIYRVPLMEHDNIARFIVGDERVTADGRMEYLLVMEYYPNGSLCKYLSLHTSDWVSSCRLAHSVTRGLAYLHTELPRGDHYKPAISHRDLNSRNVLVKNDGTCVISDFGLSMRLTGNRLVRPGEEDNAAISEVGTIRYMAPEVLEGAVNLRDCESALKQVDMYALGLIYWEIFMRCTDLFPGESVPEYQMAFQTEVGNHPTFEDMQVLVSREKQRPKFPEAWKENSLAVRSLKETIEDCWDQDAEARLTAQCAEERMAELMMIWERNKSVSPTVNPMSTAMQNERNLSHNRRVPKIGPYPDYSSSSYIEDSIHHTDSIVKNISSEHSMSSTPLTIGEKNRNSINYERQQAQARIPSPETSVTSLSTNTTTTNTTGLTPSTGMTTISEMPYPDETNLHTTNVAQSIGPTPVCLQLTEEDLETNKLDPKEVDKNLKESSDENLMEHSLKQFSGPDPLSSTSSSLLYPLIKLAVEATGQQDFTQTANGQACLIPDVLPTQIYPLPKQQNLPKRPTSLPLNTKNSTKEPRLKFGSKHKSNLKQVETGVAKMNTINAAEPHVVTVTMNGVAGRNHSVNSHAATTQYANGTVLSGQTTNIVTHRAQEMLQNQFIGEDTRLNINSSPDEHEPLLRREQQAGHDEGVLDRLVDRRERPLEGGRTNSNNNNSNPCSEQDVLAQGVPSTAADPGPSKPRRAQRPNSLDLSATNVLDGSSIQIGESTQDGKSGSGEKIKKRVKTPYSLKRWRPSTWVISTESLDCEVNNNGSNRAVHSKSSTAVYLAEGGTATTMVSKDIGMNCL
Procedure: as §1, §2, §3, §4, §5, §6, §7

MAPK9A = biological target: T12, MAPK9A (Homo sapiens, UniProt P45984)
T12 construct: purchased in-house DSF panel (SGC-style construct names; the trailing A/B is a construct suffix)
T12 sequence (P45984 1-364): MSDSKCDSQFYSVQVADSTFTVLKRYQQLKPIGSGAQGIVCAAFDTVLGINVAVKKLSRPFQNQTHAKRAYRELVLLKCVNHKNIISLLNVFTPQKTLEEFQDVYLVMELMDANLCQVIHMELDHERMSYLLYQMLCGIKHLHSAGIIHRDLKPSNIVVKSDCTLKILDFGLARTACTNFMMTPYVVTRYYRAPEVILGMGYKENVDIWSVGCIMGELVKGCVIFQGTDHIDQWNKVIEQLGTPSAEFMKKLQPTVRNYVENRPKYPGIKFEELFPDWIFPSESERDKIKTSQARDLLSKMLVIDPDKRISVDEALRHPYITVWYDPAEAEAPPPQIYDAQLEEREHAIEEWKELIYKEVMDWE
Procedure: as §1, §2, §3, §4, §5, §6, §7

BMP2KA = biological target: T13, BMP2KA (Homo sapiens, UniProt Q9NSY1)
T13 construct: purchased in-house DSF panel (SGC-style construct names; the trailing A/B is a construct suffix)
T13 sequence (Q9NSY1 38-345): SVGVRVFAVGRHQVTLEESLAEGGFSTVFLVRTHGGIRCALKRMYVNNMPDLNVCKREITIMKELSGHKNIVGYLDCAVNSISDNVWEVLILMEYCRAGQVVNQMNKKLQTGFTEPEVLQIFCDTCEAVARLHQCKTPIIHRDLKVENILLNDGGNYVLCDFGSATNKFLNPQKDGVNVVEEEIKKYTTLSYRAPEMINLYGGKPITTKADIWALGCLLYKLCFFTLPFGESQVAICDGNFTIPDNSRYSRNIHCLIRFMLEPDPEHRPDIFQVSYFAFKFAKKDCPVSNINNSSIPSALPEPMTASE
Procedure: as §1, §2, §3, §4, §5, §6, §7

PIM1A = biological target: T14, PIM1A (Homo sapiens, UniProt P11309)
T14 construct: purchased in-house DSF panel (SGC-style construct names; the trailing A/B is a construct suffix)
T14 sequence (P11309 whole entry): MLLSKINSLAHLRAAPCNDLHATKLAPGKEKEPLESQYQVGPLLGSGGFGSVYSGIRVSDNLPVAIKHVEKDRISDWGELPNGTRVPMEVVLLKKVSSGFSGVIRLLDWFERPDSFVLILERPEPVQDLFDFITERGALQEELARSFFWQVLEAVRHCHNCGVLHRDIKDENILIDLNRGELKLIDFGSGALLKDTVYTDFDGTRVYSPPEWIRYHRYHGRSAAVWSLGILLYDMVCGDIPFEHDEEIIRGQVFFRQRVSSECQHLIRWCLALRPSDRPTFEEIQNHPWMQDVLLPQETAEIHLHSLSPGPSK
Procedure: as §1, §2, §3, §4, §5, §6, §7

CAMK2DA = biological target: T15, CAMK2DA (Homo sapiens, UniProt Q13557)
T15 construct: purchased in-house DSF panel (SGC-style construct names; the trailing A/B is a construct suffix)
T15 sequence (Q13557 11-309): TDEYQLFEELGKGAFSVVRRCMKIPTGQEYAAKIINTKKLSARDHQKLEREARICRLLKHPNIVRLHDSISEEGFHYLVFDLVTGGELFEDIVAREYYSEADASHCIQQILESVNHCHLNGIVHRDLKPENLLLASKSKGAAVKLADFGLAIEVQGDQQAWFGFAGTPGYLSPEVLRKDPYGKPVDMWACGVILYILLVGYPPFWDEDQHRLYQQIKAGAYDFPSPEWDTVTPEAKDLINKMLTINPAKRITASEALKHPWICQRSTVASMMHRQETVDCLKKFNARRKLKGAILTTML
Procedure: as §1, §2, §3, §4, §5, §6, §7

CK2A1A = biological target: T16, CK2A1A (Homo sapiens, UniProt P68400)
T16 construct: purchased in-house DSF panel (SGC-style construct names; the trailing A/B is a construct suffix)
T16 sequence (P68400 whole entry): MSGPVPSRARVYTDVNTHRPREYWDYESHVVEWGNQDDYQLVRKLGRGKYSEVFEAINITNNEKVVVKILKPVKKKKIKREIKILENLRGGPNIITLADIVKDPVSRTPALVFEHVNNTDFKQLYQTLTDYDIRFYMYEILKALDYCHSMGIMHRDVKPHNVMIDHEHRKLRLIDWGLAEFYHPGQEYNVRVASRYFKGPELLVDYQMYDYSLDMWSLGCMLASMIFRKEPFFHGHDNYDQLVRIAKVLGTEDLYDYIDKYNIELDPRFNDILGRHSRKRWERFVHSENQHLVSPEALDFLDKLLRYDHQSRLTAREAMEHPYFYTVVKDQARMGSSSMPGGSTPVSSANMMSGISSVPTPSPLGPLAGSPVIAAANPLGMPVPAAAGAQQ
Procedure: as §1, §2, §3, §4, §5, §6, §7

SRPK1 = biological target: T17, SRPK1 (Homo sapiens, UniProt Q96SB4)
T17 construct: purchased in-house DSF panel (SGC-style construct names; the trailing A/B is a construct suffix)
T17 sequence (Q96SB4 whole entry): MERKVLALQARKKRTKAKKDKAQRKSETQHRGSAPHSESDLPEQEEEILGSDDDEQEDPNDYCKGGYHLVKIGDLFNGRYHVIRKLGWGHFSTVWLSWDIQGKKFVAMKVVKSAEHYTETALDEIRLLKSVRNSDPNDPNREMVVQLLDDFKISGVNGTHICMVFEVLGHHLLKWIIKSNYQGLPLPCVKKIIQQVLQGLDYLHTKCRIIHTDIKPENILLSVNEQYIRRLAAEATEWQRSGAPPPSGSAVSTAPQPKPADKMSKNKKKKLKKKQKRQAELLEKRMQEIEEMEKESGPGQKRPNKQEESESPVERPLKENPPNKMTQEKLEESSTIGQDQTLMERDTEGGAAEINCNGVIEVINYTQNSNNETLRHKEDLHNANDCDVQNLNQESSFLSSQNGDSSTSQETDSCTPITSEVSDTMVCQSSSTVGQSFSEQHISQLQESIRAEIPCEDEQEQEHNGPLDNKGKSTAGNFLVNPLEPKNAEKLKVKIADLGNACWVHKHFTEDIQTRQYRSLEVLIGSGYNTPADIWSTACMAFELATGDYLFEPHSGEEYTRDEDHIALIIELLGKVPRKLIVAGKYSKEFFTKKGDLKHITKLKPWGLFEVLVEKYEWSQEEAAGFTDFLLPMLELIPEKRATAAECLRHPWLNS
Procedure: as §1, §2, §3, §4, §5, §6, §7

CLK3A = biological target: T18, CLK3A (Homo sapiens, UniProt P49761)
T18 construct: purchased in-house DSF panel (SGC-style construct names; the trailing A/B is a construct suffix)
T18 sequence (P49761 127-484): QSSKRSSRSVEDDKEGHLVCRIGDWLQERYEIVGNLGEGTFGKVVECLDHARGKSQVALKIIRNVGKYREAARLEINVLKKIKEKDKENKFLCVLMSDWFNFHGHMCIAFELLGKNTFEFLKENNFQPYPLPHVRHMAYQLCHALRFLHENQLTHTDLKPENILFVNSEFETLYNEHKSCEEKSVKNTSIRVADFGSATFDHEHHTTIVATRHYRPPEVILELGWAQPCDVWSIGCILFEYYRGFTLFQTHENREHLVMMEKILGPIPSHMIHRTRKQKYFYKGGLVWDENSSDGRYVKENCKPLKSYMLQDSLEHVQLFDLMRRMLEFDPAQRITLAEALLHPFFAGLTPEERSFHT
Procedure: as §1, §2, §3, §4, §5, §6, §7

CDC42BPAA = test system: CDC42BPAA
Procedure: as §1, §2, §3, §4, §5, §6, §7

T1 sequence (O43293 9-289): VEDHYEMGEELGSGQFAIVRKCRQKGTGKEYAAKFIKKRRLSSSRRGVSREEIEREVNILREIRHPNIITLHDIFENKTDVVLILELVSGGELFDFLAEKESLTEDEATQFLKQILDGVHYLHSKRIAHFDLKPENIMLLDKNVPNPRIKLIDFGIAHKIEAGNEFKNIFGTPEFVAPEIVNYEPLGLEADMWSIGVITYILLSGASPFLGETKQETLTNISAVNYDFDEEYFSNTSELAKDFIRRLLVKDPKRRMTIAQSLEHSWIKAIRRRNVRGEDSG

Row | ΔTm at 20 µM (DAPK3A) [°C] | ΔTm at 20 µM (MARK3A) [°C] | ΔTm at 20 µM (MST4A) [°C] | ΔTm at 20 µM (MAPK8B) [°C] | ΔTm at 20 µM (PKMYT1A) [°C] | ΔTm at 20 µM (SLKA) [°C] | ΔTm at 20 µM (NEK2A) [°C] | ΔTm at 20 µM (BRD4) [°C] | ΔTm at 20 µM (MAP2K1A) [°C] | ΔTm at 20 µM (FGFR3A) [°C] | ΔTm at 20 µM (BMPR2A) [°C] | ΔTm at 20 µM (MAPK9A) [°C] | ΔTm at 20 µM (BMP2KA) [°C] | ΔTm at 20 µM (PIM1A) [°C] | ΔTm at 20 µM (CAMK2DA) [°C] | ΔTm at 20 µM (CK2A1A) [°C] | ΔTm at 20 µM (SRPK1) [°C] | ΔTm at 20 µM (CLK3A) [°C] | Structure (SMILES) | ΔTm (CDC42BPAA) [°C]
1 | 7.59 | 5.32 | 9.01 | 6.93 | -2.93 | 11.3 | 2.97 | 0.18 | 1.66 | 11.4 | 9.02 | 4.27 | 21.5 | -0.76 | 2.15 | 3.81 | 0.76 | 6.42 | CC(C)(C)OC(=O)NCCOCCOCCOCCOCCC(=O)N1CCN(c2cc(Nc3cc(C4CC4)[nH]n3)nc(Nc3ccc(CC#N)cc3)n2)CC1 [4-L] | -2.71
2 | 7.97 | 3.97 | 4.64 | 6.48 | -0.12 | 8.84 | 0.77 | -0.79 | 1.17 | 7 | 7.29 | 4.61 | 17.7 | -1.48 | 3.75 | 5.58 | 2.8 | 9.33 | CC(C)(C)OC(=O)NCCCOCCOCCOCCCNC(=O)c1cc(Nc2cc(C3CC3)[nH]n2)nc(Nc2ccc(CC#N)cc2)n1 [5-L] | -3.72
3 | 10.6 | 5.37 | 5.53 | 4.31 | -1.04 | 9.06 | 2.25 | 1.16 | 1.56 | 8.45 | 7.28 | 2.84 | 18 | -0.9 | 3.37 | 3.87 | 4.31 | 9.57 | CCOC(=O)c1cc(Nc2cc(C3CC3)[nH]n2)nc(Nc2ccc(CC#N)cc2)n1 [compound 5] | -2.55
